# Measurements published in PubChem BioAssay AID1919007 (Molecular Pharmacology Branch, DTP, NCI, 2023).
# Several values for one entry are separate records, joined by “and”; a condition that tells them apart may be missing. Equal values may be shown once.
# System: A498 complex spheroids with HUVEC/MSC, growth
# Experiment: Anticancer human tumor A498 cell line growth inhibition [AhR];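 note: seven day exposure starting three days after spheroid seeding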;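 for viability, T/C: luminescence signal used as a surrogate for viable cells; luminescence viability scaled so 100% equals DMSO vehicle wells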
# Conditions: for viability, T/C: stronger effect = lower value
# Source text: Multicellular complex tumor spheroid response to aryl hydrocarbon receptor antagonists in combination with a variety of drugs and investigational agents in selected tumor cell lines
# The current study was undertaken to assess response to aryl hydrocarbon receptor antagonists in combination with standard-of-care drugs and investigational agents in solid tumor complex spheroid models. Complex spheroids include a stromal component modeled by human endothelial cells (HUVEC) and fibroblasts modeled by human mesenchymal stem cells (MSCs). The concentration ranges selected for each drug and investigational agent were based upon clinically achievable concentrations if the clinical Cmax of the agent was known.
# Compounds. The drugs and investigational agents: BAY 2416964 (NSC825713), GNF351 (NSC835774), CH-223191 (NSC835775), CPI-455 (NSC825282), aza-TdCyd (NSC777586), decitabine (NSC127716), belinostat (NSC758774), entinostat (NSC756642), pevonedistat (NSC761192), tazemetostat (NSC777109), talazoparib (NSC765396), olaparib (NSC753686), selinexor (NSC780203), nedisertib (M3814, NSC802822), bortezomib (NSC756655), venetoclax (NSC766270), doxorubicin (NSC123127), elimusertib (BAY189344, NSC800525), ceralasertib (AZD6738, NSC777638), TAK-243 (NSC785004), alisertib (NSC759677), etoposide (NSC141540), topotecan (NSC609699), eribulin (NSC707389), gemcitabine (NSC613327), carboplatin (NSC241240), cisplatin (NSC119875), and SN-38 (NSC673596) were obtained from the National Cancer Institute (NCI) Developmental Therapeutics Program Chemical Repository (32). The FDA-approved anticancer drug set is available from the Developmental Therapeutics Program at https://dtp.cancer.gov/organization/dscb/obtaining/available plates.htm. […] The stock solutions were prepared in dimethyl sulfoxide (DMSO, Sigma-Aldrich, St. Louis, MO, cat. D2650), except for the platinum compounds which were prepared in saline (Quality Biological, Gaithersburg, MD, cat. 114-055-101), at 800-fold the tested concentration and stored at -70 degrees C prior to their use. All drugs and investigational agents were tested over a range starting from a high concentration at or near the clinical Cmax and decreasing in half-log increments. If the clinical Cmax for an agent had not been determined, the highest concentration tested was 10 microM (Table 1).
# Cell Culture. All cells were maintained in an incubator at 37 degrees C and 5% CO2 with 95% humidity. The PDC lines were cultured according to standard operating procedures established by the NCI PDMR (https://pdmr.cancer.gov). Briefly, all PDCs were thawed and cultured in Matrigel-coated flasks prepared with a working solution of 1X Ham's F-12 nutrient mix, without supplementation (Invitrogen, Waltham, MA, cat. 11765054), 100 U/mL penicillin-streptomycin (Invitrogen, cat. 15140122), and 2.5% Matrigel (Corning Inc., Corning, NY, cat. 354248) for the first three passages. All PDCs were cultured in complete DMEM/F-12 media containing advanced DMEM/F-12 (Invitrogen, cat. 12634028), 4.9% defined fetal bovine serum, heat inactivated (HyClone Laboratories Inc., Logan, UT, cat. SH30070.03HI), 389 ng/mL hydrocortisone (Sigma-Aldrich, cat. H4001), 9.7 ng/mL human EGF recombinant protein (Invitrogen, cat. PHG0313), 23.4 microg/mL adenine (Sigma-Aldrich, cat. A2786), 97.3 U/mL penicillin-streptomycin (Invitrogen, cat. 15140122), 1.9 mM L-glutamine (Invitrogen, cat. 25030081), and 9.7 microM Y-27632 dihydrochloride (Tocris Bioscience, Bristol, United Kingdom, cat. 1254). The PDCs were cultured in complete DMEM/F12 media without 10 microM Y-27632 dihydrochloride for at least two passages prior to the screen. The established cell lines NCI-H1341 and […] were cultured in DMEM/F-12, HEPES (Invitrogen, cat. 11330032), 5% defined fetal bovine serum (HyClone Laboratories Inc., cat. SH30070.03), ITS premix universal culture supplement [insulin (5 microg/mL), transferrin (5 microg/mL), and selenious acid (5 ng/mL)] […]
smiles,measurement,setting,value
O=C(c1cc(Cc2n[nH]c(=O)c3ccccc23)ccc1F)N1CCN(C(=O)C2CC2)CC1 + Cc1ccccc1N=Nc1ccc(NC(=O)c2ccnn2C)c(C)c1,IC50,"curve of first compound, second compound 0.1 µM",> 10 µM
same,IC50,"curve of first compound, second compound 0.316 µM",> 10 µM
same,IC50,"curve of first compound, second compound 1 µM",> 10 µM
same,IC50,"curve of first compound, second compound 3.16 µM",> 10 µM
same,IC50,"curve of first compound, second compound 10 µM",> 10 µM
same,"viability, T/C","second compound 0.1 µM, first compound 0.0316 µM",90.1%
same,"viability, T/C","second compound 0.1 µM, first compound 0.1 µM",95.2%
same,"viability, T/C","second compound 0.1 µM, first compound 0.316 µM",90.2%
same,"viability, T/C","second compound 0.1 µM, first compound 1 µM",91.9%
same,"viability, T/C","second compound 0.1 µM, first compound 3.16 µM",92.6%
same,"viability, T/C","second compound 0.1 µM, first compound 10 µM",83.5%
same,"viability, T/C","second compound 0.316 µM, first compound 0.0316 µM",96.3%
same,"viability, T/C","second compound 0.316 µM, first compound 0.1 µM",95.9%
same,"viability, T/C","second compound 0.316 µM, first compound 0.316 µM",95.2%
same,"viability, T/C","second compound 0.316 µM, first compound 1 µM",95.1%
same,"viability, T/C","second compound 0.316 µM, first compound 3.16 µM",88.9%
same,"viability, T/C","second compound 0.316 µM, first compound 10 µM",90.4%
same,"viability, T/C","second compound 1 µM, first compound 0.0316 µM",84.6%
same,"viability, T/C","second compound 1 µM, first compound 0.1 µM",95.7%
same,"viability, T/C","second compound 1 µM, first compound 0.316 µM",91.5%
same,"viability, T/C","second compound 1 µM, first compound 1 µM",81%
same,"viability, T/C","second compound 1 µM, first compound 3.16 µM",85.7%
same,"viability, T/C","second compound 1 µM, first compound 10 µM",75.9%
same,"viability, T/C","second compound 3.16 µM, first compound 0.0316 µM",79.5%
same,"viability, T/C","second compound 3.16 µM, first compound 0.1 µM",92.7%
same,"viability, T/C","second compound 3.16 µM, first compound 0.316 µM",87.6%
same,"viability, T/C","second compound 3.16 µM, first compound 1 µM",85.5%
same,"viability, T/C","second compound 3.16 µM, first compound 3.16 µM",76.6%
same,"viability, T/C","second compound 3.16 µM, first compound 10 µM",75.8%
same,"viability, T/C","second compound 10 µM, first compound 0.0316 µM",87.3%
same,"viability, T/C","second compound 10 µM, first compound 0.1 µM",83.4%
same,"viability, T/C","second compound 10 µM, first compound 0.316 µM",80.3%
same,"viability, T/C","second compound 10 µM, first compound 1 µM",86.5%
same,"viability, T/C","second compound 10 µM, first compound 3.16 µM",75.9%
same,"viability, T/C","second compound 10 µM, first compound 10 µM",70.6%
CCN(c1cc(-c2ccc(CN3CCOCC3)cc2)cc(C(=O)NCc2c(C)cc(C)[nH]c2=O)c1C)C1CCOCC1,"viability, T/C",compound 0.00949 µM,105% and 107% and 106%
same,"viability, T/C",compound 0.03 µM,106% (2×) and 107%
same,"viability, T/C",compound 0.0949 µM,107% and 109% and 106%
same,"viability, T/C",compound 0.3 µM,102% (2×) and 97.8%
same,"viability, T/C",compound 0.949 µM,101% and 104% and 108%
same,"viability, T/C",compound 3 µM,103% and 104% and 110%
same,IC50,curve of compound,> 3 µM
Cn1ncnc1C1c2n[nH]c(=O)c3cc(F)cc(c23)NC1c1ccc(F)cc1 (centres undefined),"viability, T/C",compound 0.000316 µM,105% and 97.2% and 110%
same,"viability, T/C",compound 0.001 µM,117% and 105% and 114%
same,"viability, T/C",compound 0.00316 µM,109% and 102% and 103%
same,"viability, T/C",compound 0.01 µM,108% and 101% and 100%
same,"viability, T/C",compound 0.0316 µM,112% and 106% and 103%
same,"viability, T/C",compound 0.1 µM,107% and 98.3% and 85.8%
same,IC50,curve of compound,> 0.1 µM
